EPA's ToxValDB 9.5 (doi:10.2903/j.efsa.2010.1892)
Converted amounts (≈) assume the structure as drawn.

Assays:
Adalia sp. = assay: LR50; higher = less toxic; conditions: not reported; mortality
Typhlodromus pyri = assay: LR50; higher = less toxic; conditions: not reported; mortality
Canidae = conditions: chronic; duration: 1 years; oral; Dog Other; food consumption
Daphnia magna = conditions: chronic/long-term; duration: 21 days; behavior
Folsomia candida = conditions: acute; duration: 14 days; mortality
Perca sp. = conditions: acute; duration: 96 hours; mortality
Bibionidae = conditions: chronic/long-term; duration: 28 days
Tagia sp. = conditions: acute; duration: 14 days; mortality
Anas platyrhynchos = conditions: acute; oral; unspecified; mortality
Apis mellifera = conditions: acute; duration: 48 hours; dermal; mortality
Oncorhynchus mykiss = conditions: chronic/long-term; duration: 63 days
[1] = reproduction developmental, reproduction

`CC(C)(C)c1ccc(CCOc2ncnc3ccccc23)cc1` [Fenazaquin] gave an LR50 (Adalia sp.) of less than 21.9 g/ha, an LR50 (Typhlodromus pyri) of less than 2 g/ha and an NOAEL (Canidae) of 5 mg/kg-day. It also gave an NOEC (Daphnia magna) of 0.0014 mg/L, an LC50 (Folsomia candida) greater than 1000 mg/kg and an LC50 (Colinus virginianus; acute, oral, diet, mortality) greater than 1170 mg/kg-day. The LD50 (Colinus virginianus; acute, oral, mortality) was 1750 mg/kg, the NOEC (Colinus virginianus; [1]) was 80.3 mg/kg-day and the LC50 (Perca sp.) was 3.2 ng/mL (≈ 0.0104 µM). It also gave an NOEC (Bibionidae) of 0.0188 mg/kg, an LD50 (Rattus norvegicus; acute, oral, M, mortality) of 134 mg/kg and an NOAEL (Rattus norvegicus; chronic, duration: 2 years, oral, histopathology: nonneoplastic) of 0.46 mg/kg-day. It also gave an NOAEL (Rattus norvegicus; reproduction developmental, food consumption) of 10 mg/kg-day, an NOEL (Rattus norvegicus; [1]) of 25 mg/kg-day and an LC50 (Tagia sp.) of 26.5 mg/kg. It also gave an LD50 (Anas platyrhynchos) greater than 2000 mg/kg, an LD50 (Apis mellifera) of 1.21 µg/piece and an NOEC (Oncorhynchus mykiss) of 0.00096 mg/L.
